Read-outs that look alike come from different tables or passages of the source.
Columns and labels:
PDGFRβ = PDGFRβ (Homo sapiens (Human), UniProt P09619); assay: Biochemical HTRF kinase assay, PDGFRβ; conditions: for IC50: recombinant human protein, read-out: PDGFR-1β IC50; for PDGFR-1β Fold: selectivity: IC50 of PDGFR-1β as multiple of IC50 of CSF-1R;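 on all read-outs here: kinase reaction with substrate/ATP mix run 1 h at room temperature in 384-well format, HTRF signal detection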
[1] = system: Ba/F3_CSF-1R (stably expressing human CSF-1R kinase); assay: Cell proliferation assay, Ba/F3_CSF-1R; type: cell-based; conditions: Ba/F3_CSF-1R cells, 72 hours treatment, read-out: CSF-1R BaF3 EC50
EOC2 cell = assay: Cell proliferation assay, EOC2; type: cell-based, mouse; conditions: EOC2 cells, 72 hours treatment, read-out: ECO2 EC50
c-Kit = c-Kit (Homo sapiens (Human), UniProt P10721); assay: Biochemical HTRF kinase assay, c-Kit; conditions: for IC50: recombinant human protein, read-out: cKit IC50; for cKit Fold: selectivity: IC50 of cKit as multiple of IC50 of CSF-1R;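 on all read-outs here: enzyme reaction with substrate and ATP run in 384-well plates for 1 hour at room temperature, kinase activity detected by HTRF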
CSF-1R = CSF-1R (Homo sapiens (Human), UniProt P07333); assay: Biochemical HTRF kinase assay, CSF-1R; conditions: recombinant human CSF-1R;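 further: enzyme incubated with inhibitor plus a substrate and ATP mix for one hour at room temperature before HTRF detection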
FLT3 = FLT3 (Homo sapiens (Human), UniProt P36888); assay: Biochemical HTRF kinase assay, FLT3; conditions: for IC50: recombinant human protein; for FLT3 Fold: selectivity: IC50 of FLT3 as multiple of IC50 of CSF-1R
Sequence of FLT3 (P36888 27-993): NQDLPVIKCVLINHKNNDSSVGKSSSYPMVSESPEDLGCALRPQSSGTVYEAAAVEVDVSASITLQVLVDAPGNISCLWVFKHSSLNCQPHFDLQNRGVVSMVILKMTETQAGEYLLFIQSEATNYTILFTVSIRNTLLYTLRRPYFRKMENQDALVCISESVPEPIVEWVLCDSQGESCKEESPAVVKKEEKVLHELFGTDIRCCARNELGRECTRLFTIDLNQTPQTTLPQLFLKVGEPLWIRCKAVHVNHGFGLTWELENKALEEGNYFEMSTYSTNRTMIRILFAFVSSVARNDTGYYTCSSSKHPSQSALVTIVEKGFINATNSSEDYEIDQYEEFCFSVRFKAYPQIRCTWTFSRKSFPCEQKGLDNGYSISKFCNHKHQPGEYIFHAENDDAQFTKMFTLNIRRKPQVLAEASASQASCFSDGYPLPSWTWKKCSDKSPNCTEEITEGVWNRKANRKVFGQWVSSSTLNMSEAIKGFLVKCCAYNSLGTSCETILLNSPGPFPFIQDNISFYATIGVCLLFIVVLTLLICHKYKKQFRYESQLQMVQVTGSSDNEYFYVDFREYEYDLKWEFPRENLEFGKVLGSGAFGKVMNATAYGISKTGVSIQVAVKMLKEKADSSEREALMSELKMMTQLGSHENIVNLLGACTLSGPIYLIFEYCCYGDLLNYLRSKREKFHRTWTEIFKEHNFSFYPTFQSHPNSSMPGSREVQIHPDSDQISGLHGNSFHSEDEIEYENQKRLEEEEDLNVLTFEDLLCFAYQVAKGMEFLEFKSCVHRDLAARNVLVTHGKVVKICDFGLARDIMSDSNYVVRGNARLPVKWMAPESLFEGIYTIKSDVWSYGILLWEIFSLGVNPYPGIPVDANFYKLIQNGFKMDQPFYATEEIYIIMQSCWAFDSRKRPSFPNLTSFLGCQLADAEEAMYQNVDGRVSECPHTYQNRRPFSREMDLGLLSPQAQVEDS

Sequence of CSF-1R (P07333 20-972): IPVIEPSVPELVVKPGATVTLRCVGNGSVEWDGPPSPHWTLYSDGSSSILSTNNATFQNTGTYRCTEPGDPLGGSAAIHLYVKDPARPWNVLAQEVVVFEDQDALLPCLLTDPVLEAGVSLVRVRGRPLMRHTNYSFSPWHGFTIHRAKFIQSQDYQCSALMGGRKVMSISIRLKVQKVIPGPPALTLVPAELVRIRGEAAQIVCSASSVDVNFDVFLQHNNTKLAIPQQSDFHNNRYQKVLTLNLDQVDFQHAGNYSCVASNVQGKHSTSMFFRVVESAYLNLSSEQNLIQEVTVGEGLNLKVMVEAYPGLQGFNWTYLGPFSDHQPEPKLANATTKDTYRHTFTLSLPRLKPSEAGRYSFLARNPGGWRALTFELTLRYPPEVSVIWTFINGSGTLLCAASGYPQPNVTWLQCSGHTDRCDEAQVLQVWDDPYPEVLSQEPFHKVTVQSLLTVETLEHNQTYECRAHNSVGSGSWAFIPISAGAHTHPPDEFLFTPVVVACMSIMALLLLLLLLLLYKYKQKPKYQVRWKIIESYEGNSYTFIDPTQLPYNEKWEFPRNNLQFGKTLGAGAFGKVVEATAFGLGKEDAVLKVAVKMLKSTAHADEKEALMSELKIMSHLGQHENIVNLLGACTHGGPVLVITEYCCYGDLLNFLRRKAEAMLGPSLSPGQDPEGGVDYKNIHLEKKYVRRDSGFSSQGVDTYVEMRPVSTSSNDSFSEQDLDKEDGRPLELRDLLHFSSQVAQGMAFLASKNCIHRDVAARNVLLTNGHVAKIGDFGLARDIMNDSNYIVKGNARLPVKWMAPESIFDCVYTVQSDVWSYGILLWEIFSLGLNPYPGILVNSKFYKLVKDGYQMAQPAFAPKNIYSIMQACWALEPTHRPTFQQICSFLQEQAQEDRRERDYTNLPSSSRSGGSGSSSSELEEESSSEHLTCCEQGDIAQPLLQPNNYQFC
Sequence of PDGFRβ (P09619 33-1106): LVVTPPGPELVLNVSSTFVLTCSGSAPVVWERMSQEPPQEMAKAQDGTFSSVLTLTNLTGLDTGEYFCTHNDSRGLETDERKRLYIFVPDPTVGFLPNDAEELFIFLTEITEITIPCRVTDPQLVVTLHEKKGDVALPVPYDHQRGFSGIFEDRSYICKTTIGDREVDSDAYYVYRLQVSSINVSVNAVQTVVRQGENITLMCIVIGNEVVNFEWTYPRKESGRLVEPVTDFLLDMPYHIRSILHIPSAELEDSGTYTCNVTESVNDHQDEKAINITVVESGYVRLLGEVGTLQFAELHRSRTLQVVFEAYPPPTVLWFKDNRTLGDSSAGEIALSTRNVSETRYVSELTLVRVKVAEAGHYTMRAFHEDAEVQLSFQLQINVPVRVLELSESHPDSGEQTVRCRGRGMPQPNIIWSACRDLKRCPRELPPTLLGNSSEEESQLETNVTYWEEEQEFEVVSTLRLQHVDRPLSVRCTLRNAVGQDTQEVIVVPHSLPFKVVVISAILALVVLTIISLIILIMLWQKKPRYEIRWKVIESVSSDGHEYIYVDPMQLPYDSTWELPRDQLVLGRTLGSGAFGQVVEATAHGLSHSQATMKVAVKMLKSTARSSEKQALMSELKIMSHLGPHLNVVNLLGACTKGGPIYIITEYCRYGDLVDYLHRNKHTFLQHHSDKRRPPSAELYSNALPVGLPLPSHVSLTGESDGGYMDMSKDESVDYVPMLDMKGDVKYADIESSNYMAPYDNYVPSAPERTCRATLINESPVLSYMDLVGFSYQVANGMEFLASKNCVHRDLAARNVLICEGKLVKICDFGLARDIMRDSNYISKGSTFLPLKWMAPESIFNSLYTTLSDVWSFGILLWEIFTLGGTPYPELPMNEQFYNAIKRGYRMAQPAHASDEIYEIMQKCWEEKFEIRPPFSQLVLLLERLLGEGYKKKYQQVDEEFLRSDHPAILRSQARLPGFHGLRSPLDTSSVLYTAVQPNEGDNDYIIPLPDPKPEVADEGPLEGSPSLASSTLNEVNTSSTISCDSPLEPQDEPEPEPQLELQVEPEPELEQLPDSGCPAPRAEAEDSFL
Sequence of c-Kit (P10721 26-976): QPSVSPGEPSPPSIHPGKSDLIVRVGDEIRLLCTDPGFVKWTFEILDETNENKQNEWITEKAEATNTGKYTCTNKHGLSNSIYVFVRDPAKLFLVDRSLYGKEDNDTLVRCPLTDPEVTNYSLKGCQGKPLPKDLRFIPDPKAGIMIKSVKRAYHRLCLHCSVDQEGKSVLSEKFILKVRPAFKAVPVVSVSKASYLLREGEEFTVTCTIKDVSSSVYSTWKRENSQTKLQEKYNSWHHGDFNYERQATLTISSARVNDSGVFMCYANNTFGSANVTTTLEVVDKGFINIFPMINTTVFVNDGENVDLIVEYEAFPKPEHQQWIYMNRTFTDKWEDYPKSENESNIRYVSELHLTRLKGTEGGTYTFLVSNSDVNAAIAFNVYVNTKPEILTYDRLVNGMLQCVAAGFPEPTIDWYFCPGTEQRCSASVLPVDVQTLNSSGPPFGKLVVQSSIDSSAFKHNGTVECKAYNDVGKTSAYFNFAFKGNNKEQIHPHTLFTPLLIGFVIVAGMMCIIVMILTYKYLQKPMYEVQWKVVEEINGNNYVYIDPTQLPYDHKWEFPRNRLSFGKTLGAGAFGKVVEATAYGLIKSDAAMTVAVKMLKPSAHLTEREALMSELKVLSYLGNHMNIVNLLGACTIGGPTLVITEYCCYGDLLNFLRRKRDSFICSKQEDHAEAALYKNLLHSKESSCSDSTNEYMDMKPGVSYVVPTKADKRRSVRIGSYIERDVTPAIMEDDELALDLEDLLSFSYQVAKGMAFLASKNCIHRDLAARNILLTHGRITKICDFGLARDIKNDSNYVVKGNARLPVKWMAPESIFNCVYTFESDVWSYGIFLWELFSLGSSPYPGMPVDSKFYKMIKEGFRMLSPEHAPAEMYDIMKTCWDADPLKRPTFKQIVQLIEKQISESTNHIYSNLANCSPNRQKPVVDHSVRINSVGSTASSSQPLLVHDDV

SMILES | IC50 (PDGFRβ) | PDGFR-1β Fold (PDGFRβ) | EC50 ([1]; BaF3, 72 h) | EC50 (EOC2 cell) | IC50 (c-Kit) | cKit Fold (c-Kit) | IC50 (CSF-1R; Table 2) | IC50 (CSF-1R; Table 3) | IC50 (FLT3) | FLT3 Fold (FLT3) | EC50 [1] | EC50 (EOC2 cell; Mus musculus, 72 h)
COc1cnc2c(Cc3cnc(OCc4ccc([C@H]5CC5(F)F)cn4)c(OC)c3)ccnc2c1 (stereo in doubt) [Example 80] | 49 nM | 12.3 fold | 50.7 nM | 29.8 nM | 214 nM | 53.4 fold | 4 nM | 4 nM | > 1000 nM | >100 fold | – | –
COc1cnc2c(Cc3cnc(OCc4ccc([C@H]5CC5(F)F)cn4)c(OC)c3)ccnc2c1 (stereo in doubt) [Example 81] | 371 nM | 72.7 fold | – | 60.9 nM | > 1000 nM | >100 fold | 5.1 nM | 5.1 nM | > 1000 nM | >100 fold | 25.8 nM | –
COc1ccc(COc2ncc(Cc3ccnc4cccnc34)cc2OC)nc1 [Example 15, 4-((5-methoxy-6-((5-methoxypyridin-2-yl)methoxy)pyridin-3-yl)methyl)-1,5-naphthyridine] | > 1000 nM | >100 fold | 437 nM | – | > 1000 nM | >100 fold | 9.8 nM | 9.8 nM | > 1000 nM | >100 fold | – | 253 nM
COc1cnc2c(Cc3cnc(OCc4ccc(C)cn4)c(OC)c3)ccnc2c1 [Example 55] | 322 nM | >100 fold | 155 nM | – | 785 nM | >100 fold | 3.2 nM | 3.2 nM | > 1000 nM | >100 fold | – | 45.4 nM
COc1cnc2c(Cc3cnc(OCc4ccc(OC(F)F)cn4)c(OC)c3)ccnc2c1 [Example 56] | 312 nM | >100 fold | 131 nM | – | > 1000 nM | >100 fold | 2.2 nM | 2.2 nM | > 1000 nM | >100 fold | – | 31.2 nM
COc1cnc2c(Cc3cnc(OCc4ccc(C5CC5)cn4)c(OC)c3)ccnc2c1 [Example 59] | 349 nM | 79 fold | 41.5 nM | – | > 1000 nM | >100 fold | 4.4 nM | 4.4 nM | > 1000 nM | >100 fold | – | 42.3 nM
COc1cnc2c(Cc3cnc(OCc4ccc(C5CC5(F)F)cn4)c(OC)c3)ccnc2c1 (centres unmarked) [Example 66] | 73.6 nM | 24.5 fold | 89.1 nM | – | 948 nM | >100 fold | 3 nM | 3 nM | > 1000 nM | >100 fold | – | 62.7 nM
COc1cnc2c(Cc3cnc(OCc4cc5n(n4)CCC5)c(OC)c3)ccnc2c1 [Example 72] | > 1000 nM | >100 fold | 74.6 nM | – | > 1000 nM | >100 fold | 2.2 nM | 2.2 nM | > 1000 nM | >100 fold | – | 58.9 nM
[2H]C([2H])([2H])Oc1cc(Cc2ccnc3cc(OC)cnc23)cnc1OCc1ccc(OC)cn1 [Example 74] | > 1000 nM | >100 fold | 100 nM | – | > 1000 nM | >100 fold | 3.3 nM | 3.3 nM | > 1000 nM | >100 fold | – | 33.3 nM
[2H]C([2H])([2H])Oc1ccc(COc2ncc(Cc3ccnc4cc(OC)cnc34)cc2OC)nc1 [Example 78] | 947 nM | >100 fold | 143 nM | – | > 1000 nM | >100 fold | 6.7 nM | 6.7 nM | > 1000 nM | >100 fold | – | 48.4 nM
[2H]C([2H])([2H])Oc1cnc2c(Cc3cnc(OCc4ccc(OC)cn4)c(OC)c3)ccnc2c1 [Example 79] | 684 nM | >100 fold | 118 nM | – | > 1000 nM | >100 fold | 3.6 nM | 3.6 nM | > 1000 nM | >100 fold | – | 60.4 nM
COc1cnc2c(Cc3cnc(OCc4cc(C)n(C)n4)c(OC)c3)ccnc2c1 [Example 82] | > 1000 nM | >100 fold | 161 nM | – | > 1000 nM | >100 fold | 4.6 nM | 4.6 nM | > 1000 nM | >100 fold | – | 116 nM
COc1cnc2c(Cc3cnc(OCc4cc(C(C)C)no4)c(OC)c3)ccnc2c1 [Example 83] | 158 nM | >100 fold | 26.7 nM | – | > 1000 nM | >100 fold | 1.2 nM | 1.2 nM | > 1000 nM | >100 fold | – | 37 nM
COc1cnc2c(Cc3cnc(OCc4cnc5c(c4)OCCN5C)c(OC)c3)ccnc2c1 [Example 87] | 208 nM | >100 fold | 86.3 nM | – | > 1000 nM | >100 fold | 0.83 nM | 0.83 nM | > 1000 nM | >100 fold | – | 92 nM
COc1cnc2c(Cc3cnc(OCc4cc(C)n(C5COC5)n4)c(OC)c3)ccnc2c1 [Example 88] | > 1000 nM | >100 fold | 76.7 nM | – | > 1000 nM | >100 fold | 4.9 nM | 4.9 nM | > 1000 nM | >100 fold | – | 116 nM
COc1cnc2c(Cc3cnc(OCc4cc(C(C)C)n(C)n4)c(OC)c3)ccnc2c1 [Example 93] | > 1000 nM | >100 fold | 72.9 nM | – | > 1000 nM | >100 fold | 2.1 nM | 2.1 nM | > 1000 nM | >100 fold | – | 18.3 nM
COc1ccc(COc2ncc(Cc3ccnc4cc(N(C)C)cnc34)cc2OC)nc1 [Example 100, 8-((5-methoxy-6-((5-methoxypyridin-2-yl)methoxy)pyridin-3-yl)methyl)-N,N-dimethyl-1,5-naphthyridin-3-amine] | 378 nM | >100 fold | 17.1 nM | – | 875 nM | >100 fold | 2.2 nM | 2.2 nM | > 1000 nM | >100 fold | – | 10 nM

Reference: patent US20250360145A1, “CSF-1R INHIBITORS AND USES THEREOF” (Myrobalan Therapeutics, Inc., priority 2022, published 2025)
